The values below come from patent publication US6849757B2, “Antiangiogenic drug to treat cancer, arthritis and retinopathy” (Abbott Laboratories, priority 1998, dated 2005).

The subject of one test is Human Microvascular Endothelial Cells (HMVEC). Briefly: Endothelial cell migration assay (modified Boyden chamber, bFGF-stimulated). The test is classed as cell-based. Particulars: HMVEC migration toward bFGF, 4 hours at 37° C., percent inhibition of migration compared to a positive control. How it is done: Endothelial Cell Migration Assay
The endothelial cell migration assay was performed essentially as described by Polverini, P. J. et al., Methods Enzymol, 198: 440-450 (1991). Briefly, Human Microvascular Endothelial Cells (HMVEC) were starved overnight in DMEM containing 0.1% bovine serum albumin (BSA). Cells were then harvested with trypsin and resuspended in DMEM with 0.1% BSA at a concentration of 1.5×10^6 cells/mL. Cells were added to the bottom of a 48-well modified Boyden chamber (Nucleopore Corporation, Cabin John, Md.). The chamber was assembled and inverted, and cells were allowed to attach for 2 hours at 37° C. to polycarbonate chemotaxis membranes (5 μm pore size) that had been soaked in 0.1% gelatin overnight and dried. The chamber was then reinverted and basic fibroblast growth factor (bFGF) and test substances were added to the wells of the upper chamber (to a total volume of 50 μL); the apparatus was then incubated for 4 hours at 37° C. Membranes were recovered, fixed and stained (DiffQuick, Fisher Scientific, Pittsburgh, Pa.) and the number of cells that had migrated to the upper chamber per 10 high power fields were counted. Background migration to DMEM+0.1% BSA was subtracted and the data reported as the number of cells migrated per 10 high power fields (400×) or when results from multiple experiments were combined, as the percent inhibition of migration compared to a positive control.
Regarding `COC(=O)c1ccc(NC(=O)[C@H](CCCCNC(=O)OCc2ccccc2)NC(C)=O)cc1-c1cccc(OCc2ccccc2)c1` [Example 12], the % inhibition (as a rule, the relative decrease from the control value, in per cent) at 200 nM test compound is on record as 29%.

With `CC(=O)N[C@@H](CCCCN)C(=O)Nc1ccc(C(=O)O)c(-c2cccc(O)c2)c1` [Example 15, (S)-4-[[2-(acetylamino)-6-amino-1-oxohexyl)amino]-2-(3-hydroxphenyl)benzoic acid], the “% inhibition at 200 nM test compound” value was 64%.

In the case of `CC(=O)NC(CCCCN)C(=O)Nc1ccc(C(=O)N[C@@H](CC(N)=O)C(=O)O)c(-c2ccccc2)c1` (stereo partly shown) [Example 17], the “% inhibition at 200 nM test compound” value was above 95%.

On to `CC(C)(C)OC(=O)N[C@@H](CCCCN)C(=O)Nc1ccc(C(=O)O)c(-c2cccc(O)c2)c1` [Example 31, 5-(((2S)-6-amino-1-(tert-butoxycarbonyl)aminohexanoyl)amino)-3′-hydroxy(1,1′-biphenyl)-2-carboxylic Acid], for which the “% inhibition at 200 nM test compound” value is listed as above 95%.

For the molecule “(S)-N-[4-[[2-(acetylamino)-6-amino-1-oxohexyl]amino]benzoyl]-L-α-asparagine [Example 18]”, the “% inhibition at 200 nM test compound” value came to 90%.

The test is the same for the next values; noted with them: Homo sapiens; 200 nM test compound; HMVEC migration toward bFGF, 4 hours at 37° C.; percent inhibition of migration compared to a positive control.
For the molecule `COC(=O)c1ccc(NC(=O)[C@@H](CCCCN)NC(=O)OC(C)(C)C)cc1-c1ccccc1O` [Example 10, (R)-methyl 4-[[6-amino-2-[[(1,1-dimethylethoxy)carbonyl]amino]-1-oxohexyl]amino]-2-(2-hydroxyphenyl)benzoate], the inhibition (commonly the change of the read-out against control, counted positive when it falls) at 0.2 µM worked out at 80%.

As for `NC(CCCCNC(=O)OCc1ccccc1)C(=O)Nc1ccc(CC(=O)N[C@@H](CC(=O)O)C(=O)O)cc1` (stereo partly drawn) [Example 20, (S)-N-[[4-[[2-amino-6-[[(phenylmethoxy)carbonyl]amino]-1-oxohexyl]amino]phenyl]acetyl]-L-aspartic Acid], the inhibition at 0.2 µM stood at 34%.
